One experiment deals with foodborne viruses. Particulars: cited from earlier work.
Experiment [1] concerns MNV-1. In words: Sanitization wash of MNV-1 inoculated fresh produce, viral survivors by plaque assay. Particulars: for virus reduction: 2 min wash. Set-up: species or system murine norovirus.
In experiment [2] the test system is VSV. It is filed as cell-based, vesicular stomatitis virus (VSV) Indian strain.
The subject of experiment [3] is MNV-1. It is filed as cell-based, murine norovirus.
The subject of experiment [4] is MNV-1. In words: Transmission electron microscopy of purified MNV-1 after surfactant treatment. Set-up: species or system murine norovirus.
Experiment [5] concerns VSV. Set-up: species or system vesicular stomatitis virus (VSV) Indian strain. Particulars: 10,000 ppm; 37° C.; 72 hours.
Setting [6] is: 200 ppm surfactant, 37° C., 72 hours.

Like-named read-outs stand apart in the source and are kept apart here.

Regarding `CC(=O)OO` [peracetic acid], in the experiment with foodborne viruses, the “additional reduction over tap water washing” value is on record as 0.77 logs.

As for `OCl` [sodium hypochlorite], in the experiment on foodborne viruses, the “additional virus reduction over tap water washing” value was 0.48 logs and the virus reduction entry is “less than 1 log”.

Regarding NP40, in the experiment on MNV-1 [1] (four types of fresh produce, 50 ppm surfactant alone), the “virus reduction compared with tap water or chlorine solution” value is listed as “increased virus reduction than did tap water or chlorine solution”. This compound also gave a virus reduction in the experiment on VSV [2] of 10. logs.

For the compound Triton X-100, the “additional virus reduction than that of the chlorine solution” value with MNV-1 [1] is around 1 log. The compound further yielded a virus reduction in the experiment with VSV [2] (setting [6]) of 6.7 logs.

Consider Tween 20, for which the virus reduction in the experiment on VSV [2] (setting [6]) was 2.7 logs.

As to `CCCCCCCCCCCCOS(=O)(=O)[O-].[Na+]` [SDS, sodium dodecyl sulfate], in the experiment on MNV-1 [1] (fresh produce), the “enhancement of efficiency of virus reduction over traditional sanitizers (chlorine solution alone)” value came to 100 fold. In addition, the virus reduction in the experiment on MNV-1 [1] (lettuce, 50 ppm surfactant alone) came out at 2.26 logs; in the experiment on MNV-1 [1] (raspberries, 50 ppm surfactant alone), 2.63 logs; in the experiment with MNV-1 [1] (strawberries, 50 ppm surfactant alone, room temperature), 3.14 logs; in the experiment on MNV-1 [1] (strawberries, 100 ppm SDS alone), 3.41 logs; with MNV-1 [1] (strawberries, 200 ppm SDS alone) it was 3.12 logs; in the experiment with MNV-1 [1] (strawberries, 1,000 ppm SDS alone) it was 3.51 logs. Besides, the virus reduction entry is “almost completely inactivated” in the experiment with MNV-1 [3] (10,000 ppm surfactant, 37° C., 72 hours); 7.5 logs with VSV [2] (setting [6]); 5 logs in the experiment on VSV [2] (200 ppm, 37° C., 4 hours). The “virus inactivation confirmed by plaque assay” value with MNV-1 [3] is given as “completely inactivated”; in the experiment on VSV [2] (purified VSV, 10,000 ppm, 37° C., 72 hours), “completely inactivated”. Further, in the experiment on MNV-1 [3] (1,000 ppm surfactant, 37° C., 72 hours), the “reduction in MNV-1 titer” value is on record as “highest reduction in MNV-1 titer”. In the experiment on MNV-1 [4], the “damage to MNV-1 virus particles (electron microscopy)” value was “outer capsid of the MNV-1 was severely damaged and aggregated”. For the same compound, the “damage to VSV virus particles (electron microscopy)” value in the experiment on VSV [5] is “viral envelope was damaged and the shape of VSV was severely distorted”.

Values taken from US20120219636A1, “ENHANCED REMOVAL OF VIRUSES FROM FRESH PRODUCE” (THE OHIO STATE UNIVERSITY, priority 2011, published 2012).
